Data reported in patent US4820712A, “Sparsomycin (SC-RS) compounds having antitumor activity, a process for their preparation and pharmaceutical compositions containing sparsomycin (SC-RS) compounds” (priority 1986, dated 1989).
pIC50: −log10 of the molar value.

How the values were obtained:
[1] = test system: L1210 leukemia; assay: in vivo antitumor assay, L1210 leukemia; design: species or system CDF1 mice
Method: (§1) The antitumor activity of the present compounds has also been investigated by in vivo assays. In the assays, mice were treated for nine days in succession, starting at 24 hours after the time of tumor implant.
(§2) The results are shown in tables 4, 5 and 6 and represent the number of tumor-bearing mice surviving after administration of optimal doses of the test compound, expressed as a treatment/control (T/C×100%) ratio. In the tables, information is provided with respect to the sex, dose, weight loss of treated animals compared to control animals, and the number of survivors in groups of 6 mice.

[2] = clinical tests (Cancer. Chemother. Rep. (1969), 43, 29); cited from earlier work
[3] = test system: ribosomes from E. coli MRE600 (peptidyl transferase activity); assay: polyphenylalanine synthesis assay, E. coli ribosomes; format: biochemical; settings: concentration giving 50% inhibition relative to control; 37° C., 30 min; read-out: ED50 polyPhe synthesis E. coli
Method: The peptidyl transferase activity was measured by the polyphenylalanine synthesis assay (Nirenberg and Matthei, Proc. Natl. Acad. Sci. USA 47 (1961) 1588), the fragment reaction (Monro, Methods Enzymol. 20 (1971) 472) and the puromycin reaction. In all the in vitro tests, i.e. polyPhe synthesis, fragment reaction and puromycin reaction, ribosomes from E. coli MRE600 and S. cerevisiae Y166 were used. The reaction mixture for polyphenylalanine synthesis was slightly different for E. coli and S. cerevisiae.
E. coli: The reaction mixture (50 μl) contained 50 mM Tris-HCl pH 7.6, 15 mM MgCl2, 90 mM KCl, 15 mM β-mercapto ethanol, 1 mM GTP, 10 mM ATP, 0.2 mg/ml of polyuridylic acid, 1.5 mg/ml tRNA, 0.3 μM of ribosomes, 2.5 mg/ml of phosphoenol pyruvate, 20 μg/ml of pyruvate kinase, the required concentration of sparsomycin or its analogue and 5 μl of supernatant fraction S-100. Subsequently, [^3 H]phenylalanine, 30 μM (about 60 cpm/pmol) was added to start the reaction. Incubation was at 37° C. for 30 min. The reaction was stopped by the addition of 1 ml of 10% TCA and the samples were filtered through glass fiber filters. The filters were washed with 10 ml of cold 10% TCA, dried and counted for radioactivity.
The concentration of sparsomycin or an analog giving 50% inhibition of the protein synthesis relative to the control is given in ED50.

[4] = test system: whole reticulocytes; settings: attributed to being unable to penetrate these cells; cited from earlier work
[5] = test system: P388 leukemia; assay: in vivo antitumor assay, P388 leukemia; design: species or system CDF1 mice
Method: as §1, §2

[6] = female mice, ip daily x9, optimal dose mg/kg: sparsomycin 0.25, n-octyl 12.0, benzyl 10.0, 2a 2.5, 2e 13.3
[7] = female mice, ip daily x9, dose mg/kg: sparsomycin 0.25, n-octyl 12.0, benzyl 10.0, 2a 2.5, 2e 13.3
[8] = male mice, ip daily x9, optimal dose mg/kg: sparsomycin 0.125, n-octyl 20.0, benzyl 4.0, 2a 1.7
[9] = male mice, ip daily x9, dose mg/kg: sparsomycin 0.125, n-octyl 20.0, benzyl 4.0, 2a 1.7
[10] = female mice, ip daily x9, dose mg/kg: 2a 3.4

In the case of `CSC[S@+]([O-])C[C@H](CO)NC(=O)/C=C/c1c(C)[nH]c(=O)[nH]c1=O` [Sparsomycin], the “T/C (survival, treatment/control x 100%)” value [1, 6] was 121%, the “cures (survivors in groups of 6 mice)” value [1, 7] was 0/6 and the “T/C (survival, treatment/control x 100%)” value [1, 8] was 105%. For the same compound, the “cures (survivors in groups of 6 mice)” value [1, 9] was 0/6, the “weight loss (T - C)” value ([1]; mouse, in vivo, ip) was -1.1 g and the “toxicity revealed in clinical tests” value [2] was “eye toxicity”. The pIC50 [3] was 5.07, the “activity against whole reticulocytes” value [4] was “not active” and the “T/C (survival, treatment/control x 100%)” value ([5]; male mice, ip daily x9, optimal dose mg/kg: sparsomycin 0.125, n-octyl 22.5, benzyl 2.0, 2e 20.0) was 88%. The “cures (survivors in groups of 6 mice)” value ([5]; male mice, ip daily x9, dose mg/kg: sparsomycin 0.125, n-octyl 22.5, benzyl 2.0, 2e 20.0) was 0/6 and the “weight loss (T - C)” value ([5]; mouse, in vivo, ip) was -3.0 g.
With `CSC[S@+]([O-])C[C@H](C)NC(=O)/C=C/c1c(C)[nH]c(=O)[nH]c1=O` [2a, (Sc Rs)-1-(methylthiomethyl)sulfinyl-2-[β-(6-methyl-5-uracilyl)acrylamido]-propane] the “T/C (survival, treatment/control x 100%)” value [1, 6] was 184%, the “cures (survivors in groups of 6 mice)” value [1, 7] was 0/6 and the “weight loss (T - C)” value [1, 7] was -1.4 g. The “T/C (survival, treatment/control x 100%)” value [1, 8] was 248%, the “cures (survivors in groups of 6 mice)” value [1, 9] was 2/6 and the “weight loss (T - C)” value ([1]; male mice, ip daily x9 from 24 h after implant, dose mg/kg: sparsomycin 0.125, n-octyl 20.0, benzyl 4.0, 2a 1.7) was -2.0 g. For the same compound, the pIC50 [3] was 4.82, the “T/C (survival, treatment/control x 100%)” value ([5]; female mice, ip daily x9, optimal dose mg/kg: 2a 3.4) was 170% and the “cures (survivors in groups of 6 mice)” value [5, 10] was 0/6. For the same compound, the “weight loss (T - C)” value [5, 10] was -2.3 g.
